Reference: patent publication US11312727B1, “Macrocyclic flu endonuclease inhibitors” (Janssen BioPharma, Inc., priority 2018, dated 2022)

What was measured:
[1] = tested on: Influenza strain A549 A/WSN/33 (H1N1); test: microbe, parasite or virus in culture; type: cell-based; conditions: Influenza A virus, A549, 20 h, A549 cells, influenza A/WSN/33 (H1N1), 20 hours incubation; read-out: A549_A(H1N1) EC50
in vitro = conditions: human, CC50, uninfected A549 cells, CellTiter-Glo

Compound	EC50 [1]	CC50 (in vitro)
O=C1c2c(O)c(=O)ccn2N2CN1[C@@H](C1CC1)/C=C/COc1c(ccc(F)c1F)[C@H]2c1ccccc1 (single isomer, unassigned) [Compound 152BA, (9*S,18*R,*E)-9-cyclopropyl-3,4-difluoro-12-hydroxy-18-phenyl-6,9-dihydro-18H-10,17-methanobenzo[b]pyrido[1,2-f][1]oxa[5,6,9]triazacyclotridecine-11,13-dione]	1.3 nM	> 200 nM
CC[C@H]1/C=C/COc2cc(F)ccc2[C@@H](c2ccccc2)N2CN1C(=O)c1c(O)c(=O)ccn12 (single isomer, unassigned) [Compound 89AA, (9*S,18*R,E)-9-ethyl-3-fluoro-12-hydroxy-18-phenyl-6,9-dihydro-18H-10,17-methanobenzo[b]pyrido[1,2-f][1]oxa[5,6,9]triazacyclotridecine-11,13-dione]	10800 nM	39300 nM
CSc1ccccc1[C@H]1c2cccc(F)c2OC/C=C\CN2CN1n1ccc(=O)c(O)c1C2=O (single isomer, unassigned) [Compound 119A, (18*R,*Z)-4-fluoro-12-hydroxy-18-(2-(methylthio)phenyl)-6,9-dihydro-18H-10,17-methanobenzo[b]pyrido[1,2-f][1]oxa[5,6,9]triazacyclotridecine-11,13-dione]	> 100 nM	> 200 nM
O=C1c2c(O)c(=O)ccn2N2CN1CC/C=C/CCOc1ccccc1[C@H]2c1ccccc1 (single isomer, unassigned) [Compound 65A, (2*R,*Z)-15-hydroxy-2-phenyl-12,13,14,16-tetrahydro-11H-4-oxa-1(1,3)-pyrido[2,1-f][1,2,4]triazina-3(1,2)-benzenacyclodecaphan-7-ene-14,16-dione]	> 5000 nM	> 10000 nM
O=C1c2c(O)c(=O)ccn2N2CN1CCCCCc1ccccc1[C@@H]2c1ccccn1 (single isomer, unassigned) [Compound 40A, (17*R)-4-hydroxy-16-(pyridin-2-yl)-7,8,9,10,11,16-hexahydro-6,17-methanobenzo[k]pyrido[1,2-b][1,2,5]triazacyclotridecine-3,5-dione]	30 nM	> 2000 nM
O=C1c2c(O)c(=O)ccn2N2CN1C[C@H]1C[C@H]1COc1cccc3c1[C@H]2c1ccccc1SC3 (single isomer, unassigned) [Compound 118AA, (1a*R,11b*S,20a*S)-17-hydroxy-1a,2,6,11 b,17,17a,20,20a-octahydro-1H-5,4-(epiprop[1]en[1]yl[3]ylidene)-12,19-methanobenzo[6,7]thiepino[4,5-c]cyclopropa[k]pyrido[1,2-f][1]oxa[5,6,9]triazacyclotridecine-16,18-dione]	6.2 nM	> 200 nM
O=C1c2c(O)c(=O)ccn2N2CN1CC[C@H]1C[C@H]1COc1cccc3c1[C@@H]2c1ccccc1SC3 (single isomer, unassigned) [Compound 144AB, (1*R,13*R,15*R)-7-hydroxy-17-oxa-24-thia-2,3,10-triazaheptacyclo[16.12.1.12,10.03,8.013,15.022,31.025,30]dotriaconta-4,18,20,22(31),25(30),26,28-heptaene-6,9-dione]	> 100 nM	> 200 nM
CC[C@@H]1C/C=C/COc2c(F)cccc2[C@@H](c2ccccc2)N2CN1C(=O)c1c(O)c(=O)ccn12 (single isomer, unassigned) [Compound 105AB, (2*R,9*R,*E)-9-ethyl-33-fluoro-15-hydroxy-2-phenyl-12,13,14,16-tetrahydro-11H-4-oxa-1(1,3)-pyrido[2,1-f][1,2,4]triazina-3(1,2)-benzenacyclononaphan-6-ene-14,16-dione]	1.9 nM	> 200 nM
C[C@H]1/C=C/COc2ccccc2[C@@H](c2ccccc2)N2CN1C(=O)c1c(O)c(=O)ccn12 (single isomer, unassigned) [Compound 29AB, (9*S, 18*R, E)-12-hydroxy-9-methyl-18-phenyl-6,9-dihydro-18H-10,17-methanobenzo[b]pyrido[1,2-f][1]oxa[5,6,9]triazacyclotridecine-11,13-dione]	5.7 nM	> 200 nM
O=C1c2c(O)c(=O)ccn2N2CN1C/C=C\COc1cc(F)c(F)cc1[C@@H]2c1ccccn1 (single isomer, unassigned) [Compound 70A, (18*R,*Z)-2,3-difluoro-12-hydroxy-18-(pyridin-2-yl)-6,9-dihydro-18H-10,17-methanobenzo[b]pyrido[1,2-f][1]oxa[5,6,9]triazacyclotridecine-11,13-dione]	> 10000 nM	> 20000 nM
O=C1c2c(O)c(=O)ccn2N2CN1C/C=C\COc1c(F)cccc1[C@@H]2c1cccc(F)c1 (single isomer, unassigned) [Compound 59B, (18*S,Z)-4-fluoro-18-(3-fluorophenyl)-12-hydroxy-6,9-dihydro-18H-10,17-methanobenzo[b]pyrido[1,2-f][1]oxa[5,6,9]triazacyclotridecine-11,13-dione]	497 nM	> 2000 nM
O=C1c2c(O)c(=O)ccn2N2CN1CCCCOc1c(F)cccc1[C@@H]2c1ccccc1 (single isomer, unassigned) [Compound 114B, (18*S)-4-fluoro-12-hydroxy-18-phenyl-6,7,8,9-tetrahydro-18H-10,17-methanobenzo[b]pyrido[1,2-f][1]oxa[5,6,9]triazacyclotridecine-11,13-dione]	> 100 nM	> 200 nM
COC[C@H]1N2C/C=C\COc3ccccc3[C@H](c3ccccc3)N1n1ccc(=O)c(O)c1C2=O (single isomer, unassigned) [Compound 109B, (18*S,19*S,*Z)-12-hydroxy-19-(methoxymethyl)-18-phenyl-6,9-dihydro-18H-10,17-methanobenzo[b]pyrido[1,2-f][1]oxa[5,6,9]triazacyclotridecine-11,13-dione]	> 100 nM	> 200 nM
O=C1c2c(O)c(=O)ccn2N2CN1CCC/C=C\Cc1ccccc1C2c1ccccn1 (centres unmarked) [Compound 15, (Z)-15-hydroxy-2-(pyridin-2-yl)-12,13,14,16-tetrahydro-11H-1(1,3)-pyrido[2,1-f][1,2,4]triazina-3(1,2)-benzenacyclononaphan-5-ene-14,16-dione]	635 nM	> 20000 nM
O=C1c2c(O)c(=O)ccn2N2CN1C/C=C/COc1cc(F)c(F)c3c1[C@@H]2c1ccccc1SC3 (single isomer, unassigned) [Compound 140A, (17a*R,*E)-24,25-difluoro-12-hydroxy-2,6,9,17a-tetrahydro-3,4-(epiprop[1]en[1]yl[3]ylidene)-10,17-methanobenzo[6,7]thiepino[4,5-c]pyrido[1,2-f][1]oxa[5,6,9]triazacyclotridecine-11,13-dione]	96.3 nM	9960 nM
Cc1ccc2c(c1F)OC/C=C\CN1CN([C@@H]2c2ccccc2)n2ccc(=O)c(O)c2C1=O (single isomer, unassigned) [Compound 135A, (18*R,Z)-4-fluoro-12-hydroxy-3-methyl-18-phenyl-6,9-dihydro-18H-10,17-methanobenzo[b]pyrido[1,2-f][1]oxa[5,6,9]triazacyclotridecine-11,13-dione]	7.3 nM	> 200 nM
O=C1c2c(O)c(=O)ccn2N2CN1C[C@@H]1C[C@H]1COc1c(F)cccc1[C@H]2c1ccccc1 (single isomer, unassigned) [Compound 125AA, (1a*R,8*R,17a*R)-4-fluoro-14-hydroxy-8-phenyl-1a,2,17,17a-tetrahydro-1H,8H-9,16-methanobenzo[b]cyclopropa[k]pyrido[1,2-f][1]oxa[5,6,9]triazacyclotridecine-13,15-dione]	51 nM	> 200 nM
O=C1c2c(O)c(=O)ccn2N2CN1CC/C=C\COc1ccc(F)c3c1[C@@H]2c1ccccc1SC3 (single isomer, unassigned) [Compound 93A, (1*R,13Z)-20-fluoro-7-hydroxy-16-oxa-23-thia-2,3,10-triazahexacyclo[15.12.1.12,10.03,8.021,30.024,29]hentriaconta-4,7,13,17,19,21(30),24(29),25,27-nonaene-6]	> 500 nM	> 1000 nM
O=C1c2c(O)c(=O)ccn2N2CN1CC/C=C/COc1cc(F)ccc1[C@@H]2c1ccccc1 (single isomer, unassigned) [Compound 77A, (7E,19*R)-3-fluoro-13-hydroxy-19-phenyl-9,10-dihydro-6H,19H-11,18-methanopyrido[2,1-i][1,7,10,11]benzoxatriazacyclotetradecine-12,14-dione]	5280 nM	33200 nM
C[C@@H]1/C=C/COc2c(F)cccc2[C@H](c2ccccc2)N2CN1C(=O)c1c(O)c(=O)ccn12 (single isomer, unassigned) [Compound 141BA, (9*R,18*S,E)-4-fluoro-12-hydroxy-9-methyl-18-phenyl-6,9-dihydro-18H-10,17-methanobenzo[b]pyrido[1,2-f][1]oxa[5,6,9]triazacyclotridecine-11,13-dione]	306 nM	> 20000 nM
O=C1c2c(O)c(=O)ccn2N2CN1C/C=C/COc1cc(F)c(F)c3c1[C@H]2c1ccccc1SC3 (single isomer, unassigned) [Compound 140B, (17a*S,*E)-24,25-difluoro-12-hydroxy-2,6,9,17a-tetrahydro-3,4-(epiprop[1]en[1]yl[3]ylidene)-10,17-methanobenzo[6,7]thiepino[4,5-c]pyrido[1,2-f][1]oxa[5,6,9]triazacyclotridecine-11,13-dione]	0.3 nM	> 50 nM
CC[C@H]1C/C=C/COc2c(F)cccc2[C@H](c2ccccc2)N2CN1C(=O)c1c(O)c(=O)ccn12 (single isomer, unassigned) [Compound 105BA, (2*S,9*S,*E)-9-ethyl-33-fluoro-15-hydroxy-2-phenyl-12,13,14,16-tetrahydro-11H-4-oxa-1(1,3)-pyrido[2,1-f][1,2,4]triazina-3(1,2)-benzenacyclononaphan-6-ene-14,16-dione]	> 100 nM	> 200 nM
